The target of assay [1] is activated HSA (Homo sapiens, UniProt P02768). On the procedure: Such binding degree to albumin can be simply qualitatively or quantitatively measured by an in vitro analysis using a simple HPLC.
Human serum albumin (HSA, 1 mM) solution was prepared by dissolving 66.5 mg of the activated HSA prepared in Example 3 in PBS buffer solution (pH 7.2, 1 ml). Stock solutions (1 mM) of bioactive substance Compound 15 (1.8 mg/ml) and Leuprolide (1.2 mg/ml) were respectively prepared by the same method.
The stock solutions prepared in the above method were diluted with PBS buffer so that they had the compositions shown in Table 2 below thereby to prepare sample solutions (100 μl) for determination. Then, each reaction mixture was mixed and slowly shaken in an incubator for 30 min while the temperature condition of 37° C. was kept. After incubation, methanol (150 μl) was added to each sample vial, which was then voltexed for 10 min, to precipitate HSA. The precipitated albumin was spun down by centrifugation (12,000 rpm, 10° C., 10 min.) and the supernatants (50 μl) were taken and analyzed using HPLC under the same conditions.
The degree of conjugation was examined with increasing the concentration of the bioactive substance compounds at the fixed concentration of albumin.

Assay [2] has as its system ICR female mice. Kind of assay: Blood glucose reducing activity through intraperitoneal glucose tolerance test (IPGTT). The format is in vivo. The settings on record: 10 nmol. On the procedure: Long-acting of the blood glucose reducing effect was tested in this example to determine long-acting of the blood glucose reducing activity of Compound 35 of the present invention. As control samples for determining blood glucose reducing activity and long-acting of the activity, native Exendin-4 was used, and the activity of each peptide sample was measured by intraperitoneal glucose tolerance test (IPGTT).
ICR female mice (6 weeks old, DaehanBioLink, Korea) were employed as test animals, after being adapted in lab for 7 days. Before the test, 8 mice were picked out of each group and blood was collected from tail to measure the glucose concentration in blood using glucometer (Accucheck Sensor, Roche), and then, starved for 15 to 18 hours. […] At each determined time, blood was corrected from caudal vein and the level of glucose therein was measured with glucometer. The experiments for the determination of blood glucose reducing activity and the long-acting of the activity are summarized in Table 5.
The animal test results with respect to the long-acting of blood glucose reducing effect, when Compound 35 of the present invention, and […], were measured through IPGTT, and shown in FIGS. 1 and 2. […]

Read-outs that look alike come from different tables or passages of the source.

Chain of activated HSA (P02768 25-609): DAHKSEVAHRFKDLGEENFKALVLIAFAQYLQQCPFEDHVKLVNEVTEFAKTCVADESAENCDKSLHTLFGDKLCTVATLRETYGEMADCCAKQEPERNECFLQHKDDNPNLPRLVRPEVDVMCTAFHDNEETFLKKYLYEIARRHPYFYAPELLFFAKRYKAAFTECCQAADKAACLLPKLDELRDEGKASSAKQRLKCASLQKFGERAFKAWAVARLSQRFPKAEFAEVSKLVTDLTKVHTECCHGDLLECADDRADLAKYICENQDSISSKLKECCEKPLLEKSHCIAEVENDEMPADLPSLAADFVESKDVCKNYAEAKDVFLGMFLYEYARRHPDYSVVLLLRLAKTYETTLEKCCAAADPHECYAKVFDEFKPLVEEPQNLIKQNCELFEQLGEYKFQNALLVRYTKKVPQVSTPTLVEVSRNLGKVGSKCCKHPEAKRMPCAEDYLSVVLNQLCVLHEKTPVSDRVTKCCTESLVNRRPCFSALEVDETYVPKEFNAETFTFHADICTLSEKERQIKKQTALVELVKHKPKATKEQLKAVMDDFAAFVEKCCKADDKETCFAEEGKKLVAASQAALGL

Consider “Leuprolide-GSG-Lys-[ε-AEEA-CO—(CH2)2—SH]—NH2.2TFA [Compound 15]”, for which the “PA 20.6 min (peak area)” value is listed as 0 in assay [1] (Compound 15/albumin 5/50 (μl of 1 mM stocks), PBS, 37° C., 30 min, supernatant HPLC); 4.4M in assay [1] (Compound 15/albumin 10/0, Compound 15 only, M: million); 0 in assay [1] (Compound 15/albumin 10/50 (μl of 1 mM stocks), PBS, 37° C., 30 min, supernatant HPLC); 1.3M in assay [1] (Compound 15/albumin 20/50 (μl of 1 mM stocks), PBS, 37° C., 30 min, supernatant HPLC, M: million); 9.8M in assay [1] (Compound 15/albumin 40/50 (μl of 1 mM stocks), PBS, 37° C., 30 min, supernatant HPLC, M: million); 17.9M in assay [1] (Compound 15/albumin 50/40 (μl of 1 mM stocks), PBS, 37° C., 30 min, supernatant HPLC, M: million). In addition, in assay [1] (Compound 15/albumin 50/50 (μl of 1 mM stocks), PBS, 37° C., 30 min, supernatant HPLC, M: million), the “PA 20.6 min (peak area)” value came to 14.7M. Moreover, the “PA 20.6 min/4.4M” value in assay [1] (Compound 15/albumin 5/50, relative to Compound 15 only) came to 0; in assay [1] (Compound 15/albumin 10/0, Compound 15 only) it was 1.0; in assay [1] (Compound 15/albumin 10/50, relative to Compound 15 only), 0; in assay [1] (Compound 15/albumin 20/50, relative to Compound 15 only), 0.3; in assay [1] (Compound 15/albumin 40/50, relative to Compound 15 only), 2.2; in assay [1] (Compound 15/albumin 50/40, relative to Compound 15 only), 4.0. Further, in assay [1] (Compound 15/albumin 50/50, relative to Compound 15 only), the “PA 20.6 min/4.4M” value stood at 3.3. For the same substance, in assay [1] (binding test of albumin and Compound 15), the “binding of Compound 15 to albumin” value is reported as “bound”.
As to Exendin-4, the “blood glucose reducing curve in IPGTT versus saline control” value in assay [2] (subcutaneous once 10 hours before intraperitoneal glucose (2 g/kg)) and in assay [2] (subcutaneous once 24 hours before intraperitoneal glucose (2 g/kg)) was “no significant difference” each time.

These data come from patent US20100021480A1, “BIOACTIVE SUBSTANCE-BLOOD PROTEIN CONJUGATE AND STABILIZATION OF A BIOACTIVE SUBSTANCE USING THE SAME” (priority 2005, published 2010).
